Assay results reported in EP4563146A1 (IRBM S.P.A., priority 2023, dated 2025).
Like-named read-outs stand apart in the source and are kept apart here.

Tests used:
[1] = biological target: T1, West Nile Virus (WNV) NS2B-NS3 protease (West Nile virus, UniProt Q9Q6P4); test: WNV protease inhibition assay; format: biochemical; settings: Table 4; letter codes for IC50
T1 construct: NS2B1423-1470); purchased R&D 2907-SE-020
Excerpt: WNV protease inhibition assay

ZIKV replicon = test: ZIKV replication inhibition assay (NanoLuc replicon in Vero cells); settings: 72 h
[2] = Zika virus, Vero, read-out: ZIKA Cell_Nanoluc
[3] = Zika virus, Vero, read-out: ZIKA Cell_Nanoluc, Vero cells with stable ZIKV replicon, 72 h, Nano-Glo readout
[4] = read-out: ZIKA Cell_Nanoluc, Vero cells with stable ZIKV replicon, Nano-Glo readout

T1 sequence (Q9Q6P4 1423-1470): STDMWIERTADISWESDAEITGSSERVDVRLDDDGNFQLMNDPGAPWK
T1 sequence (Q9Q6P4 1506-1689): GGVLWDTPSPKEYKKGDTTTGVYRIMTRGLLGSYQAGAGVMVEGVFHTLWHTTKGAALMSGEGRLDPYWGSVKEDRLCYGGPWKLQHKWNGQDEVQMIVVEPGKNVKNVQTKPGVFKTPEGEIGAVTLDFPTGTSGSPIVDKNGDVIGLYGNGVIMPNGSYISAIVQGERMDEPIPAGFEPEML

Row | SMILES | IC50 [1] [nM] | EC50 (ZIKV replicon; [2]) [nM] | EC50 (ZIKV replicon; [3]) [nM] | EC50 (ZIKV replicon; [4]) [nM]
1 | Cc1ccccc1CC(=O)Nc1cc(NC(=O)[N-]c2c[n+]([C@H]3CC[C@H](C(=O)O)CC3)no2)cc(C(F)(F)F)c1 [Example 229, (3-((1R,4R)-4-Carboxycyclohexyl)-1,2,3-oxadiazol-3-ium-5-yl)((3-(2-(o-tolyl)acetamido)-5-(trifluoromethyl)phenyl)carbamoyl)amide] | 100 to 1000 | 1000 to 20000 | – | –
2 | CN(C)C[C@H]1CC[C@H]([n+]2cc([N-]C(=O)Nc3cc(NC(=O)Cc4c(F)cccc4Cl)cc(C(F)(F)F)c3)on2)CC1 [Example 198, ((3-(2-(2-Chloro-6-fluorophenyl)acetamido)-5-(trifluoromethyl)phenyl)carbamoyl)(3-((1R,4R)-4-((dimethylamino)methyl)cyclohexyl)-1,2,3-oxadiazol-3-ium-5-yl)amide] | 1000 to 20000 | < 100 | – | –
3 | O=C([N-]c1c[n+](C[C@H]2CC[C@H](c3cncnc3)CC2)no1)Nc1ccnc(C(F)(F)F)c1 [Example 187, (3-(((1R,4R)-4-(Pyrimidin-5-yl)cyclohexyl)-methyl)-1,2,3-oxadiazol-3-ium-5-yl)((2-(trifluoromethyl)pyridin-4-yl)carbamoyl)amide] | 100 to 1000 | 100 to 1000 | – | –
4 | CN(C)C[C@H]1CC[C@H]([n+]2cc([N-]C(=O)Nc3cc(N(C)C(=O)Cc4ccccc4)cc(C(F)(F)F)c3)on2)CC1 [Example 172, (3-((1R,4R)-4-((Dimethylamino)methyl)-cyclohexyl)-1,2,3-oxadiazol-3-ium-5-yl)((3-(N-methyl-2-phenylacetamido)-5-(trifluoromethyl)-phenyl)carbamoyl)amide] | 100 to 1000 | 1000 to 20000 | – | –
5 | CN(C)C[C@H]1CC[C@H]([n+]2cc([N-]C(=O)Nc3cc(NC(=O)Cc4ccccc4Cl)nc(C(F)(F)F)c3)on2)CC1 [Example 193, ((2-(2-(2-Chlorophenyl)acetamido)-6-(trifluoromethyl)pyridin-4-yl)carbamoyl)(3-((1R,4R)-4-((dimethylamino)methyl)-cyclohexyl)-1,2,3-oxadiazol-3-ium-5-yl)amide] | 1000 to 20000 | 100 to 1000 | – | –
6 | Cc1ccccc1CC(=O)Nc1cc(NC(=O)[N-]c2c[n+](C[C@@H]3CCCC[C@H]3O)no2)cc(C(F)(F)F)c1 [Example 218, (3-(((1S,2R)-2-Hydroxycyclohexyl)methyl)-1,2,3-oxadiazol-3-ium-5-yl)((3-(2-(o-tolyl)acetamido)-5-(trifluoromethyl)phenyl)-carbamoyl)amide] | 100 to 1000 | – | 100 to 1000 | –
7 | Cc1ccccc1CC(=O)Nc1cc(NC(=O)[N-]c2c[n+]([C@@H]3CCC[C@H](N(C)C)C3)no2)cc(C(F)(F)F)c1 [Example 202, (3-((1R,3S)-3-(Dimethylamino)cyclohexyl)-1,2,3-oxadiazol-3-ium-5-yl)((3-(2-(o-tolyl)acetamido)-5-(trifluoromethyl)phenyl)-carbamoyl)amide] | 100 to 1000 | – | 1000 to 20000 | –
8 | CNC(=O)[C@H]1CCC[C@@H]([n+]2cc([N-]C(=O)Nc3cc(NC(=O)Cc4ccccc4C)cc(C(F)(F)F)c3)on2)C1 (racemic) [Example 245, rac-(3-((1R,3S)-3-(Methylcarbamoyl)cyclohexyl)-1,2,3-oxadiazol-3-ium-5-yl)((3-(2-(o-tolyl)acetamido)-5-(trifluoromethyl)phenyl)carbamoyl)amide] | 100 to 1000 | – | 1000 to 20000 | –
9 | Cc1ccccc1CC(=O)Nc1cc(NC(=O)[N-]c2c[n+]([C@@H]3CCC[C@@H](C(N)=O)C3)no2)cc(C(F)(F)F)c1 [Example 235, (3-((1R,3R)-3-Carbamoylcyclohexyl)-1,2,3-oxadiazol-3-ium-5-yl)((3-(2-(o-tolyl)acetamido)-5-(trifluoromethyl)phenyl)carbamoyl)amide] | < 100 | – | – | 100 to 1000
10 | Cc1ncccc1-c1ccc(C[n+]2cc([N-]C(=O)Nc3ccnc(C(F)(F)F)c3)on2)cc1 [Example 258, (3-(4-(2-Methylpyridin-3-yl)benzyl)-1,2,3-oxadiazol-3-ium-5-yl)((2-(trifluoromethyl)pyridin-4-yl)carbamoyl)amide] | < 100 | – | < 100 | –
11 | Cc1ccccc1CC(=O)Nc1cc(NC(=O)[N-]c2c[n+](C[C@H]3CCCC[C@H]3O)no2)cc(C(F)(F)F)c1 [Example 217, (3-(((1R,2R)-2Hydroxycyclohexyl)methyl)-1,2,3-oxadiazol-3-ium-5-yl)((3-(2-(o-tolyl)acetamido)-5-(trifluoromethyl)phenyl)-carbamoyl)amide] | < 100 | – | < 100 | –
12 | O=C([N-]c1c[n+](Cc2ccc(-c3cncnc3)cc2)no1)Nc1ccnc(C(F)(F)F)c1 [Example 266, (3-(4-(Pyrimidin-5-yl)benzyl)-1,2,3-oxadiazol-3-ium-5-yl)((2-(trifluoromethyl)pyridin-4-yl)carbamoyl)amide] | < 100 | – | – | < 100
13 | CN(C)C[C@H]1CC[C@H]([n+]2cc([N-]C(=O)Nc3cc(NC(=O)Cc4c(F)cccc4F)cc(C(F)(F)F)c3)on2)CC1 [Example 199, ((3-(2-(2,6-Difluorophenyl)acetamido)-5-(trifluoromethyl)phenyl)carbamoyl)(3-((1R,4R)-4-((dimethylamino)methyl)cyclohexyl)-1,2,3-oxadiazol-3-ium-5-yl)amide] | 100 to 1000 | < 100 | – | –
14 | CC(C(=O)Nc1cc(NC(=O)[N-]c2c[n+]([C@H]3CC[C@H](CN(C)C)CC3)no2)cc(C(F)(F)F)c1)c1ccccc1Cl (stereo partly drawn) [Example 205, ((3-(2-(2-Chlorophenyl)propanamido)-5-(trifluoromethyl)phenyl)carbamoyl)(3-((1R,4R)-4-((dimethylamino)methyl)cyclohexyl)-1,2,3-oxadiazol-3-ium-5-yl)amide] | 100 to 1000 | 1000 to 20000 | – | –
15 | CN(C)C[C@H]1CC[C@H]([n+]2cc([N-]C(=O)Nc3cc(NC(=O)[C@H](F)c4ccccc4F)cc(C(F)(F)F)c3)on2)CC1 (single isomer, unassigned) [Example 271] | < 100 | 100 to 1000 | – | –
16 | Cc1ccccc1CC(=O)Nc1cc(NC(=O)[N-]c2c[n+]([C@@H]3CCC[C@H](O)C3)no2)cc(C(F)(F)F)c1 [Example 214, (3-((1R,3S)-3-Hydroxycyclohexyl)-1,2,3-oxadiazol-3-ium-5-yl)((3-(2-(o-tolyl)acetamido)-5-(trifluoromethyl)phenyl)carbamoyl)amide] | 100 to 1000 | – | 1000 to 20000 | –
17 | Cc1ccccc1CC(=O)Nc1cc(NC(=O)[N-]c2c[n+]([C@H]3CCC[C@@H](CN(C)C)C3)no2)cc(C(F)(F)F)c1 (stereo in doubt) [Example 246, rac-(3-((1S,3R)-3-((Dimethylamino)methyl)-cyclohexyl)-1,2,3-oxadiazol-3-ium-5-yl)((3-(2-(o-tolyl)acetamido)-5-(trifluoromethyl)phenyl)-carbamoyl)amide] | < 100 | – | 1000 to 20000 | –
18 | CN(C)C[C@H]1CC[C@H]([n+]2cc([N-]C(=O)Nc3cc(NC(=O)Cc4cn(C)c5ccccc45)cc(C(F)(F)F)c3)on2)CC1 [Example 161, (3-((1R,4R)-4-((dimethylamino)methyl)-cyclohexyl)-1,2,3-oxadiazol-3-ium-5-yl)((3-(2-(1-methyl-1H-indol-3-yl)acetamido)-5-(trifluoromethyl)phenyl)carbamoyl)amide] | 100 to 1000 | 1000 to 20000 | – | –
19 | Cc1ncnc(C)c1-c1ccc(C[n+]2cc([N-]C(=O)N[C@@H]3CC[C@@H](C(F)(F)F)C3)on2)cc1 (racemic) [Example 256, (3-((4-(4,6-Dimethylpyrimidin-5-yl)phenyl)methyl)oxadiazol-3-ium-5-yl)-((rac-(1R,3R)-3-(trifluoromethyl)cyclopentyl)-carbamoyl)azanide] | 100 to 1000 | 1000 to 20000 | – | –
20 | CN(C)C[C@H]1CC[C@H]([n+]2cc([N-]C(=O)Nc3cc(NC(=O)CCc4cn(C)c5ccccc45)cc(C(F)(F)F)c3)on2)CC1 [Example 157, (3-((1R,4R)-4-((Dimethylamino)methyl)-cyclohexyl)-1,2,3-oxadiazol-3-ium-5-yl)((3-(3-(1-methyl-1H-indol-3-yl)propanamido)-5-(trifluoromethyl)phenyl)carbamoyl)amide] | < 100 | – | – | 1000 to 20000
21 | Cc1nn(C)c(C)c1-c1ccc(C[n+]2cc([N-]C(=O)Nc3ccnc(C(F)(F)F)c3)on2)cc1 [Example 268, ((2-(Trifluoromethyl)pyridin-4-yl)carbamoyl)(3-(4-(1,3,5-trimethyl-1H-pyrazol-4-yl)benzyl)-1,2,3-oxadiazol-3-ium-5-yl)amide] | < 100 | – | < 100 | –
22 | CN1c2ccccc2CCC1C[n+]1cc([N-]C(=O)Nc2ccnc(C(F)(F)F)c2)on1 (racemic) [Example 178, rac-(3-((1-Methyl-1,2,3,4-tetrahydroquinolin-2-yl)methyl)-1,2,3-oxadiazol-3-ium-5-yl)((2-(trifluoromethyl)pyridin-4-yl)carbamoyl)amide] | 100 to 1000 | – | 100 to 1000 | –
23 | C[C@@H](C(=O)Nc1cc(NC(=O)[N-]c2c[n+]([C@H]3CC[C@H](CN(C)C)CC3)no2)cc(C(F)(F)F)c1)c1ccccc1 [Example 175, (3-((1R,4R)-4-((Dimethylamino)methyl)-cyclohexyl)-1,2,3-oxadiazol-3-ium-5-yl)((3-((R)-2-phenylpropanamido)-5-(trifluoromethyl)-phenyl)carbamoyl)amide] | < 100 | 1000 to 20000 | – | –
24 | CN(C)C[C@H]1CC[C@H]([n+]2cc([N-]C(=O)Nc3cc(NC(=O)CS(=O)(=O)c4ccccc4)cc(C(F)(F)F)c3)on2)CC1 [Example 151, (3-((1R,4R)-4-((Dimethylamino)methyl)-cyclohexyl)-1,2,3-oxadiazol-3-ium-5-yl)((3-(2-(phenylsulfonyl)acetamido)-5-(trifluoromethyl)phenyl)carbamoyl)amide] | 100 to 1000 | – | – | 1000 to 20000
